According to US10835533B2, “1 -((3S,4R)-4-(3-fluorophenyl)-1-(2-methoxyethyl)pyrrolidin-3-yl)-3-(4-methyl-3-(2-methylpyrimidin-5-yl)-1-phenyl-1H-pyrazol-5-yl)urea as a TrkA kinase inhibitor” (Array BioPharma Inc., priority 2014, dated 2020):

What was measured:
Assay in all cases: KinaseProfiler kinase profiling
Type in all cases: biochemical
Conditions in all cases: 10 μM, ATP near Km
[1] = target: T1, PKCgamma (Homo sapiens, UniProt P05129)
T1 construct: purchased Millipore, Inc. (KinaseProfiler service)
In short: (§1)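 The compound was assayed at 10 μM in duplicate, using an ATP level near the Km determined for each individual kinase. Values were reported as percent of control and averaged across the two runs.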

[2] = target: T2, ARK5 (Homo sapiens, UniProt O60285)
T2 construct: purchased Millipore, Inc. (KinaseProfiler service)
In short: as §1

[3] = target: T3, LOK (Homo sapiens, UniProt O94804)
T3 construct: purchased Millipore, Inc. (KinaseProfiler service)
In short: as §1

[4] = target: T4, NEK3 (Homo sapiens, UniProt P51956)
T4 construct: purchased Millipore, Inc. (KinaseProfiler service)
In short: as §1

[5] = target: T5, MINK (Homo sapiens, UniProt Q8N4C8)
T5 construct: purchased Millipore, Inc. (KinaseProfiler service)
In short: as §1

[6] = target: T6, EphB2 (Homo sapiens, UniProt P29323)
T6 construct: purchased Millipore, Inc. (KinaseProfiler service)
In short: as §1

[7] = target: T7, MAP4K2 (Homo sapiens, UniProt Q12851)
T7 construct: purchased Millipore, Inc. (KinaseProfiler service)
In short: as §1

[8] = target: T8, ROCK-II (Homo sapiens, UniProt O75116)
T8 construct: purchased Millipore, Inc. (KinaseProfiler service)
In short: as §1

[9] = target: T9, CHK1 (Homo sapiens, UniProt O14757)
T9 construct: purchased Millipore, Inc. (KinaseProfiler service)
In short: as §1

[10] = target: T10, IKKalpha (Homo sapiens, UniProt O15111)
T10 construct: purchased Millipore, Inc. (KinaseProfiler service)
In short: as §1

[11] = target: T11, PAK2 (Homo sapiens, UniProt Q13177)
T11 construct: purchased Millipore, Inc. (KinaseProfiler service)
In short: as §1

[12] = target: T12, ITK (Homo sapiens, UniProt Q08881)
T12 construct: purchased Millipore, Inc. (KinaseProfiler service)
In short: as §1

[13] = target: T13, CDK5/p35 (Homo sapiens, UniProt Q00535)
T13 construct: purchased Millipore, Inc. (KinaseProfiler service)
In short: as §1

[14] = target: T14, PRKG1alpha (Homo sapiens, UniProt Q13976)
T14 construct: purchased Millipore, Inc. (KinaseProfiler service)
In short: as §1

[15] = target: T15, WNK3 (Homo sapiens, UniProt Q9BYP7)
T15 construct: purchased Millipore, Inc. (KinaseProfiler service)
In short: as §1

[16] = target: T16, Rsk3 (Homo sapiens, UniProt Q15349)
T16 construct: purchased Millipore, Inc. (KinaseProfiler service)
In short: as §1

[17] = target: T17, PTK6 (Homo sapiens, UniProt Q13882)
T17 construct: purchased Millipore, Inc. (KinaseProfiler service)
In short: as §1

[18] = target: T18, IR (Homo sapiens, UniProt P06213)
T18 construct: purchased Millipore, Inc. (KinaseProfiler service)
In short: as §1

[19] = target: T19, BLK (Homo sapiens, UniProt P51451)
T19 construct: purchased Millipore, Inc. (KinaseProfiler service)
In short: as §1

[20] = target: T20, DMPK (Homo sapiens, UniProt Q09013)
T20 construct: purchased Millipore, Inc. (KinaseProfiler service)
In short: as §1

[21] = target: T21, ULK2 (Homo sapiens, UniProt Q8IYT8)
T21 construct: purchased Millipore, Inc. (KinaseProfiler service)
In short: as §1

[22] = target: T22, Met (Homo sapiens, UniProt P08581)
T22 construct: purchased Millipore, Inc. (KinaseProfiler service)
In short: as §1

[23] = target: T23, KDR (Homo sapiens, UniProt P35968)
T23 construct: purchased Millipore, Inc. (KinaseProfiler service)
In short: as §1

[24] = target: T24, IKKbeta (Homo sapiens, UniProt O14920)
T24 construct: purchased Millipore, Inc. (KinaseProfiler service)
In short: as §1

[25] = target: T25, AKT1 (Homo sapiens, UniProt P31749)
T25 construct: purchased Millipore, Inc. (KinaseProfiler service)
In short: as §1

[26] = target: T26, PRK2 (Homo sapiens, UniProt Q16513)
T26 construct: purchased Millipore, Inc. (KinaseProfiler service)
In short: as §1

[27] = target: T27, EphA8 (Homo sapiens, UniProt P29322)
T27 construct: purchased Millipore, Inc. (KinaseProfiler service)
In short: as §1

[28] = target: T28, CDK2/cyclinE (Homo sapiens, UniProt P24941)
T28 construct: purchased Millipore, Inc. (KinaseProfiler service)
In short: as §1

[29] = target: T29, MuSK (Homo sapiens, UniProt O15146)
T29 construct: purchased Millipore, Inc. (KinaseProfiler service)
In short: as §1

[30] = target: T30, BrSK1 (Homo sapiens, UniProt Q8TDC3)
T30 construct: purchased Millipore, Inc. (KinaseProfiler service)
In short: as §1

[31] = target: T31, FAK (Homo sapiens, UniProt Q05397)
T31 construct: purchased Millipore, Inc. (KinaseProfiler service)
In short: as §1

[32] = target: T32, Syk (Homo sapiens, UniProt P43405)
T32 construct: purchased Millipore, Inc. (KinaseProfiler service)
In short: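 Off-target panel screen: compound added at 10 μM, ATP held near Km for every enzyme, two replicates each. Residual activity expressed relative to control and averaged.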

[33] = target: T33, p38alpha (Homo sapiens, UniProt Q16539)
T33 construct: purchased Millipore, Inc. (KinaseProfiler service)
In short: as §1

[34] = target: T34, NEK7 (Homo sapiens, UniProt Q8TDX7)
T34 construct: purchased Millipore, Inc. (KinaseProfiler service)
In short: as §1

[35] = target: T35, IRAK4 (Homo sapiens, UniProt Q9NWZ3)
T35 construct: purchased Millipore, Inc. (KinaseProfiler service)
In short: as §1

[36] = target: T36, SRPK1 (Homo sapiens, UniProt Q96SB4)
T36 construct: purchased Millipore, Inc. (KinaseProfiler service)
In short: as §1

[37] = target: T37, PKCiota (Homo sapiens, UniProt P41743)
T37 construct: purchased Millipore, Inc. (KinaseProfiler service)
In short: as §1

[38] = target: T38, Rse (Homo sapiens, UniProt Q06418)
T38 construct: purchased Millipore, Inc. (KinaseProfiler service)
In short: as §1

[39] = target: T39, CDK6/cyclinD3 (Homo sapiens, UniProt Q00534)
T39 construct: purchased Millipore, Inc. (KinaseProfiler service)
In short: as §1

[40] = target: T40, MST2 (Homo sapiens, UniProt Q13188)
T40 construct: purchased Millipore, Inc. (KinaseProfiler service)
In short: as §1

[41] = target: T41, Rsk1 (Homo sapiens, UniProt Q15418)
T41 construct: purchased Millipore, Inc. (KinaseProfiler service)
In short: as §1

T5 sequence (Q8N4C8 whole entry): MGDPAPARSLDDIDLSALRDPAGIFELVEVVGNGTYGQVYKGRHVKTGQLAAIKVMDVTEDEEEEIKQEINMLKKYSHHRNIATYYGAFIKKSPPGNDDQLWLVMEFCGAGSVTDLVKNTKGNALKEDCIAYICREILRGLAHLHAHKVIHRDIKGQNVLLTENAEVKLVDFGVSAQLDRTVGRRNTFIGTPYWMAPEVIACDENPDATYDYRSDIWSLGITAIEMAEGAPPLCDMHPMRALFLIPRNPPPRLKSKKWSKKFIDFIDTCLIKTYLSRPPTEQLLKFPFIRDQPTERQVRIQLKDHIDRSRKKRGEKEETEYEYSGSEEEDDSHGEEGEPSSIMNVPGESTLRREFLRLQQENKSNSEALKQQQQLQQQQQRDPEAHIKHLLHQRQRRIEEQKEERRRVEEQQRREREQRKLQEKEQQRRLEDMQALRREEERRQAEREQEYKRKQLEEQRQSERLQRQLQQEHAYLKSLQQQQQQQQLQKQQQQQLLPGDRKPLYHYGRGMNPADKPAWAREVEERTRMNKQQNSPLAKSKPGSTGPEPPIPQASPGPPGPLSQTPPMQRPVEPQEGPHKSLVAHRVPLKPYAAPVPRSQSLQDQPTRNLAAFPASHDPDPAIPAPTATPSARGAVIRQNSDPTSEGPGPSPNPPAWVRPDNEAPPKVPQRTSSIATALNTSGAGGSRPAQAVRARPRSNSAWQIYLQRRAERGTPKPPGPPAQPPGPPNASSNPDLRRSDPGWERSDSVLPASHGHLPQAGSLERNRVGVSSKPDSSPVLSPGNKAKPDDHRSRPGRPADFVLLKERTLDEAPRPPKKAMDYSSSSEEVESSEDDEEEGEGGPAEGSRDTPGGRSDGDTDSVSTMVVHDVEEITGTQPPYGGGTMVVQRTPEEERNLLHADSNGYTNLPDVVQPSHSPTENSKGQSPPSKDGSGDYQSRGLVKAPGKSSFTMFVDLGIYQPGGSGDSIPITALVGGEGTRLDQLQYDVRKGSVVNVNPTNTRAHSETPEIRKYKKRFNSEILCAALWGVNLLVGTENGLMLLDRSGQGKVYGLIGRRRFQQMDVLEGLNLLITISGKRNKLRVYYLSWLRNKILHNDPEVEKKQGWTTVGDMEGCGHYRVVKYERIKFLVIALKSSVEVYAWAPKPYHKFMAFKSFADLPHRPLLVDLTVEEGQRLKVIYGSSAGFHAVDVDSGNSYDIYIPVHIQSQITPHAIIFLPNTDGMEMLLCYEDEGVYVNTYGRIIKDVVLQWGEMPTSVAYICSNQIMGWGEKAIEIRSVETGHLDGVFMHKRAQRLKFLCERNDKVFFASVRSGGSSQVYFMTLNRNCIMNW
T8 sequence (O75116 whole entry): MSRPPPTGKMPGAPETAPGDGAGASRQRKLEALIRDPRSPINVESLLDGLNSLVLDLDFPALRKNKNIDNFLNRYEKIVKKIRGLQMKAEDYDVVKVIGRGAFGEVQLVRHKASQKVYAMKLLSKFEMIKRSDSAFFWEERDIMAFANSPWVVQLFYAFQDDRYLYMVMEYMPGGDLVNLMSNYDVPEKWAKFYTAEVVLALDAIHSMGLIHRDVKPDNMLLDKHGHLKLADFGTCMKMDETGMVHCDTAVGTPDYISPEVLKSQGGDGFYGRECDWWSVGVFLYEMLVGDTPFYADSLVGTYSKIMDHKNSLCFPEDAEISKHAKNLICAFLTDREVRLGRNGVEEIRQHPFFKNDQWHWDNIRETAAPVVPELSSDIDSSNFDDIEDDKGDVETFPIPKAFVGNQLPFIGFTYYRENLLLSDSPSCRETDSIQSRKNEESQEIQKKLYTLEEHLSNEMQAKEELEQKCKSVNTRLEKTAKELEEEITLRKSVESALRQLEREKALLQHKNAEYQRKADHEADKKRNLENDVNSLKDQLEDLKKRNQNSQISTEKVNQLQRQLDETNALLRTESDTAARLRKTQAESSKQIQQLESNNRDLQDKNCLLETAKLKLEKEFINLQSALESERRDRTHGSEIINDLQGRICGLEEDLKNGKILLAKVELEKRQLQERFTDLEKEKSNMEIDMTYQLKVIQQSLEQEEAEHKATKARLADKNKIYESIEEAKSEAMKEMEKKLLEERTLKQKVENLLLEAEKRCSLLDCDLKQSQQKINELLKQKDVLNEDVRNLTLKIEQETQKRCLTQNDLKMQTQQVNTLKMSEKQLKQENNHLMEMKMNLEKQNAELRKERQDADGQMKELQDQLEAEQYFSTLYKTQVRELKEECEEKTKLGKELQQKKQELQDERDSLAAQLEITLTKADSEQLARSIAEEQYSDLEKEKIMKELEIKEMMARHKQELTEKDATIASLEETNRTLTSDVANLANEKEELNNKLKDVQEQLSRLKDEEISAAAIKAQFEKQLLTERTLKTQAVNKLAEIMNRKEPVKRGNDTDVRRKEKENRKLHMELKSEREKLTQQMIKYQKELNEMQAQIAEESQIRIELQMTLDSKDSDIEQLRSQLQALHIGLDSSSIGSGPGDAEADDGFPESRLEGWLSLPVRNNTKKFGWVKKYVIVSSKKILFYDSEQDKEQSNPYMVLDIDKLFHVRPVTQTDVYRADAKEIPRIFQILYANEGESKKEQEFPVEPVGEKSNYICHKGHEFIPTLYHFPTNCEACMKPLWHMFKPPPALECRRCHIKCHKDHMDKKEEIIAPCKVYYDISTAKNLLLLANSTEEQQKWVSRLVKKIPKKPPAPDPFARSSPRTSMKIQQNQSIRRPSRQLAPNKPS
T13 sequence (Q00535 whole entry): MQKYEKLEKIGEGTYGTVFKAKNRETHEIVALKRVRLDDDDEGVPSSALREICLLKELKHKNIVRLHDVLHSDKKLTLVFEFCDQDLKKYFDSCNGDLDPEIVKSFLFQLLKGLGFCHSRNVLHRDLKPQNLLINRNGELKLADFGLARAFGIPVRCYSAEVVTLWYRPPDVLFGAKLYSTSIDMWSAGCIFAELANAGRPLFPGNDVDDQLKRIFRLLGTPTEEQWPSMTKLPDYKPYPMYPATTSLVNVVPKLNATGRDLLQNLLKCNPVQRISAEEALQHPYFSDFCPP
T13 sequence (Q15078 whole entry partner): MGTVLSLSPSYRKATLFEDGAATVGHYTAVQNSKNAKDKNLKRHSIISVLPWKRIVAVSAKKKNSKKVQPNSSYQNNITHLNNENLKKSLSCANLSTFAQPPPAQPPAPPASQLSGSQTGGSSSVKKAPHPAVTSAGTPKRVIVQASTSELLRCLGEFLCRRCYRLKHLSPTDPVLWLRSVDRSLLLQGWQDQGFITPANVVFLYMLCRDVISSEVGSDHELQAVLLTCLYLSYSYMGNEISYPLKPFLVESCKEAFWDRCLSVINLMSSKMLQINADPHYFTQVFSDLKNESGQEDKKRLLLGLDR
T31 sequence (Q05397 whole entry): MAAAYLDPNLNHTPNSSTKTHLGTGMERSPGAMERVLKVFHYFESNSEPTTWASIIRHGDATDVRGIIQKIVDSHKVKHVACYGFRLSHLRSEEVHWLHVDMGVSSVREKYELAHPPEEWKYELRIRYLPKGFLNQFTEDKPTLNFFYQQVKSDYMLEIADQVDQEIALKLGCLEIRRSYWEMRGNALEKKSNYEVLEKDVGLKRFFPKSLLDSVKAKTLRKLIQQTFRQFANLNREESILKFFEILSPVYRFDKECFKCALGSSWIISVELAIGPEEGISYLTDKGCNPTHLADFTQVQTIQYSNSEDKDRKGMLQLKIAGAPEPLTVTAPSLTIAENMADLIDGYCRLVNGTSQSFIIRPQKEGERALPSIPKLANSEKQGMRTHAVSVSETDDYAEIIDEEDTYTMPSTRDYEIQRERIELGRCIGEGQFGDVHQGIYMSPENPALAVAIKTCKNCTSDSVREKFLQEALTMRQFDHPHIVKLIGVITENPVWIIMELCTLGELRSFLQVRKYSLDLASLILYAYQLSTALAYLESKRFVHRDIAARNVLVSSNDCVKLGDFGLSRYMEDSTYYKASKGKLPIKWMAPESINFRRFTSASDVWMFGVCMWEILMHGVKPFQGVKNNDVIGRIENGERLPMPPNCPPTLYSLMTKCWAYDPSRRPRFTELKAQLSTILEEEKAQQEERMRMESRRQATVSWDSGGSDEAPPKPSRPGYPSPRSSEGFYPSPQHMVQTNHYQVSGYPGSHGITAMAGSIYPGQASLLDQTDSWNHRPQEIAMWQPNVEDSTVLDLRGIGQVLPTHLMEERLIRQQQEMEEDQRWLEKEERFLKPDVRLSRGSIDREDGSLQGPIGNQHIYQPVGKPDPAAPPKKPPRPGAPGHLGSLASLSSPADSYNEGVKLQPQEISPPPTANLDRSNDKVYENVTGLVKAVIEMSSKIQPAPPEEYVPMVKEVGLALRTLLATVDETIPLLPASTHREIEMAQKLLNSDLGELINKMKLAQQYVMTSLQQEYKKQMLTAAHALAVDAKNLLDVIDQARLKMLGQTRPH
T37 sequence (P41743 whole entry): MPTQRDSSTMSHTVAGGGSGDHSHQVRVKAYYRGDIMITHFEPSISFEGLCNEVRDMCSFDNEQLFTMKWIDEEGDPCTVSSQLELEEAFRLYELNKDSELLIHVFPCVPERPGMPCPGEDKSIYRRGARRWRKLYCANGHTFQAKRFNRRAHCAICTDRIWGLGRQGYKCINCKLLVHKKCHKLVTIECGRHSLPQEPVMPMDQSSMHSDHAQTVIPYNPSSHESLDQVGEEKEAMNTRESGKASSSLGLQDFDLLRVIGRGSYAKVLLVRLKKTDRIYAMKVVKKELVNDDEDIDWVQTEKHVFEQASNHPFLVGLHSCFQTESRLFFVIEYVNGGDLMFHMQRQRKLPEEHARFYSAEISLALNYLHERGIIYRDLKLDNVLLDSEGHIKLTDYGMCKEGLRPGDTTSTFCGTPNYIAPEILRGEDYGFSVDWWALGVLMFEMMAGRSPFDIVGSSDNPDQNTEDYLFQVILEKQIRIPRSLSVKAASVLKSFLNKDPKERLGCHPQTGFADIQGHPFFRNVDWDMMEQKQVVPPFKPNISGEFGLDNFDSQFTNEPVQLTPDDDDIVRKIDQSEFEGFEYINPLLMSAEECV

Avg POC [1]: 98 POC | Avg POC [2]: 104.5 POC | Avg POC [3]: 125.5 POC | Avg POC [4]: 104.5 POC | Avg POC [5]: 105 POC | Avg POC [6]: 98 POC | Avg POC [7]: 101 POC | Avg POC [8]: 105.5 POC | Avg POC [9]: 109 POC | Avg POC [10]: 101.5 POC | Avg POC [11]: 105.5 POC | Avg POC [12]: 104 POC | Avg POC [13]: 97 POC | Avg POC [14]: 109.5 POC | Avg POC [15]: 115.5 POC | Avg POC [16]: 107.5 POC | Avg POC [17]: 106 POC | Avg POC [18]: 84.5 POC | Avg POC [19]: 82.5 POC | Avg POC [20]: 98.5 POC | Avg POC [21]: 106 POC | Avg POC [22]: 124.5 POC | Avg POC [23]: 102.5 POC | Avg POC [24]: 104.5 POC | Avg POC [25]: 104 POC | Avg POC [26]: 116 POC | Avg POC [27]: 110 POC | Avg POC [28]: 102 POC | Avg POC [29]: 95 POC | Avg POC [30]: 98 POC | Avg POC [31]: 100.5 POC | Avg POC [32]: 95.5 POC | Avg POC [33]: 107.5 POC | Avg POC [34]: 104 POC | Avg POC [35]: 98 POC | Avg POC [36]: 96 POC | Avg POC [37]: 91 POC | Avg POC [38]: 102.5 POC | Avg POC [39]: 99.5 POC | Avg POC [40]: 102 POC | Avg POC [41]: 102 POC
SMILES: COCCN1C[C@@H](NC(=O)Nc2c(C)c(-c3cnc(C)nc3)nn2-c2ccccc2)[C@H](c2cccc(F)c2)C1 [Compound 1, 1-((3S,4R)-4-(3-fluorophenyl)-1-(2-methoxyethyl)pyrrolidin-3-yl)-3-(4-methyl-3-(2-methylpyrimidin-5-yl)-1-phenyl-1H-pyrazol-5-yl)urea]
